{
  "source": "patent US20260014130A1",
  "about": "“FORMULATIONS OF CAPSID INHIBITOR” (Gilead Sciences, Inc., priority 2024, published 2026)",
  "key": {"[1]": {"conditions": "cited from earlier work"}, "HIV": {"test_system": "HIV", "conditions": "twice-yearly SC 927 mg (two 1.5 mL injections of 309 mg/mL), oral loading 600 mg days 1 and 2; cited from earlier work"}, "[2]": {"conditions": "in vivo, sc; cited from earlier work"}, "HIV-1": {"test_system": "HIV-1", "assay": "In vitro protein binding-adjusted 95% effective concentration (paEC95) and inhibitory quotient", "type": "cell-based"}},
  "data": [
    {"smiles": "CC(C)(C#Cc1ccc(-c2ccc(Cl)c3c(NS(C)(=O)=O)nn(CC(F)(F)F)c23)c([C@H](Cc2cc(F)cc(F)c2)NC(=O)Cn2nc(C(F)(F)F)c3c2C(F)(F)[C@@H]2C[C@H]32)n1)S(C)(=O)=O", "note": "[lenacapavir]", "values": [
      {"measurement": "systemic lenacapavir exposures relative to those achieved with the intramuscular formulations", "setting": "[1]; observed previously, well tolerated", "result": "approximately 3 fold"},
      {"measurement": "mean Cmax", "setting": "[1]; supratherapeutic total dose of 9600 mg of oral lenacapavir", "result": 1070.4, "unit": "ng/mL"},
      {"measurement": "efficacy in cisgender men and gender-diverse people", "setting": "HIV", "result": 99.9, "unit": "%"},
      {"measurement": "efficacy in cisgender women", "setting": "HIV", "result": 100, "unit": "%"},
      {"measurement": "highest observed mean concentration", "setting": "[2]", "result": 72.1, "unit": "ng/mL"},
      {"measurement": "in vitro paEC95 (protein binding-adjusted 95% effective concentration)", "setting": "HIV-1", "result": 3.87, "unit": "ng/mL"},
      {"measurement": "inhibitory quotient-4 (IQ4; 4-fold in-vitro protein binding-adjusted 95% effective concentration)", "setting": "HIV-1; plasma concentration threshold", "result": 15.5, "unit": "ng/mL"}
    ]}
  ]
}
